Consider 4 compounds from ChEMBL document CHEMBL1201862, “PubChem BioAssay data set” (2004).

What all share (test): NCI-60 cell line screen, 48 h
Test [1] relates to 786-0.
Test [2] has as its system CAKI-1.
The subject of test [3] is CCRF-CEM.
Test [4] relates to EKVX.
In test [5] the test system is MCF7.
The subject of test [6] is MDA-MB-435.
Test [7] relates to MOLT-4.
Test [8] has as its system Malme-3M.
For test [9], the system named is NCI-H226.
The subject of test [10] is OVCAR-4.
In test [11] the test system is SF-268.
The test system of test [12] is SF-295.
Test [13] concerns SK-OV-3.
Test [14] deals with SN12C.
The subject of test [15] is SNB-19.
In test [16] the test system is SNB-75.
Test [17] deals with SR.
In test [18] the test system is UACC-257.
Test [19] has as its system UO-31.

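Grown in 96-well plates, cells were treated for 48 hours with each compound at five concentrations. Insufficient inhibition: endpoint recorded as highest concentration tested. GI50 is the concentration that inhibits growth by half.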 Calls of active or inactive are those of the source. Cut-off read from the data, not from the text of the source: active = GI50 up to about 1.1 µM and inactive = higher.

`O=C1O/C(=C(/Cl)c2c3ccccc3cc3ccccc23)c2ccccc21`: the GI50 in test [1] is 14.4 µM (inactive); in test [2], 33.4 µM (inactive); in test [3], 4 µM (inactive); in [4], 26.4 µM (inactive); in test [5] it was 32.1 µM (inactive); in test [6] it was 22.2 µM (inactive). Further, the GI50 in [7] was 7.53 µM (inactive); in test [8], 48.1 µM (inactive); in test [9], 26.7 µM (inactive); in test [10], 17.2 µM (inactive); in [11] it was 30.5 µM (inactive); in test [12] it was 47 µM (inactive). Moreover, the GI50 is 69.5 µM (inactive) in test [13]; 26.1 µM (inactive) in test [14]; 20.3 µM (inactive) in test [15]; 4.75 µM (inactive) in [16]; 4.58 µM (inactive) in test [17]; 33.2 µM (inactive) in test [18]. Besides, in [19], the GI50 is 44.2 µM (inactive).
Consider `CCn1c2c(c3c(C(=O)OC)c(O)ccc31)C(=O)c1ccccc1C2=O`, for which the GI50 is 12.2 µM (inactive) in test [1]; 15.5 µM (inactive) in test [2]; 15 µM (inactive) in test [3]; 26 µM (inactive) in [4]; 16.4 µM (inactive) in [5]; 12.9 µM (inactive) in test [6]. For the same compound, the GI50 in test [7] was 12.1 µM (inactive); in test [8] it was 15.8 µM (inactive); in [9], 9.18 µM (inactive); in test [10] it was 10.2 µM (inactive); in test [11], 15.3 µM (inactive); in test [12], 17.3 µM (inactive). Also, the GI50 in test [13] is 5 µM (inactive); in test [14] it was 11.9 µM (inactive); in test [15], 22.3 µM (inactive); in [16], 4.36 µM (inactive); in test [17] it was 11.3 µM (inactive); in test [18] it was 40.6 µM (inactive). For the same compound, the GI50 in test [19] is 4.57 µM (inactive).
In the case of `CC(C)(C)OC(=O)N1CC(COS(C)(=O)=O)c2ccc(O)cc21` (stereo unspecified), the GI50 was 2.59 µM (inactive) in [1]; 2.42 µM (inactive) in test [2]; 0.455 µM (active) in test [3]; 2.23 µM (inactive) in test [4]; 1.13 µM (inactive) in test [5]; 1.8 µM (inactive) in test [6]. The GI50 in test [7] is 0.443 µM (active); in test [8] it was 1.52 µM (inactive); in test [9] it was 1.92 µM (inactive); in [10], 1.18 µM (inactive); in test [11], 1.72 µM (inactive); in [12], 2.91 µM (inactive). Also, the GI50 in test [13] is 3.15 µM (inactive); in test [14], 2.25 µM (inactive); in test [15], 2.7 µM (inactive); in test [16], 1.46 µM (inactive); in test [17], 0.703 µM (active); in test [18], 2.29 µM (inactive). Besides, the GI50 in [19] is 1.97 µM (inactive).
As to `O=C(O)c1cc(-c2ccc3c(O)c(O)ccc3c2)ccc1O`, the GI50 in [1] is 31.7 µM (inactive); in [2] it was 4.34 µM (inactive); in test [3], 12.3 µM (inactive); in test [4] it was > 75 µM (inactive); in test [5], 13.4 µM (inactive); in test [6], 21.7 µM (inactive). In addition, the GI50 is 12.6 µM (inactive) in [7]; > 75 µM (inactive) in test [8]; 28 µM (inactive) in test [9]; 12.9 µM (inactive) in test [10]; > 75 µM (inactive) in [11]; 16.1 µM (inactive) in [12]. Besides, the GI50 was > 75 µM (inactive) in test [13]; 14.8 µM (inactive) in test [14]; > 75 µM (inactive) in test [15]; > 75 µM (inactive) in test [16]; 18.1 µM (inactive) in test [17]; 68.4 µM (inactive) in test [18]. For the same compound, the GI50 in [19] was > 75 µM (inactive).
